Measured values reported in patent publication US20110195153A1, “Nutritional Formulation Comprising A Cows Milk Peptide Containing Hydrolysate And Or Peptides Derived Thereof For Tolerance Induction” (MEAD JOHNSON NUTRITION COMPANY, priority 2009, published 2011).
Several values for one entry are separate records, joined by “and”; a condition that tells them apart may be missing. Identical values can stand only once.

System: T-cells
Experiment: Tolerance induction experiment: T-cell fraction preincubated, combined with APCs and re-stimulated
Format: cell-based, human
Details: for mean cpm / cpm / SI: individual KF1; for cpm: individual experiments; for proliferation of T-cells when re-stimulated with cow's milk protein after preincubation with the substance: re-stimulated with whey protein concentrate VTP14 or rαS1-casein, in words
Experimental: For the tolerance induction experiment, PBMCs from healthy donors were isolated by Ficoll-density gradient, and the cells were further separated into two fractions. T-cells were enriched with a human Pan-T-cell isolation Kit (Miltenyi, Bergisch Gladbach, Germany), whereas antigen-presenting cells were enriched with human CD3 MicroBeads (Miltenyi, Bergisch Gladbach, Germany) by magnetic cell sorting.
The cell fractions containing the T-cells were incubated overnight with different peptides or medium alone at 37° C. with 5% CO2 and 95% humidity, the antigen-presenting-cell fractions were kept overnight at the same conditions without any antigens. On the next day, the T-cell fractions were washed with DPBS (GIBCO) three times and the T-cell and antigen-presenting-cell fractions were combined. The cells (2×10^5 cells per well) were cultured in triplicates in 96-well plates as described above. […] The analysis was done as described for the lymphoproliferative assays.
T-cell fractions were preincubated over night with high amounts of Nutramigen™ base (VTP11), extensive casein hydrolysate (VTP15), whole cow's milk whey protein (VTP14), Nutramigen™ (VTP3), synthetic peptides ([…], Phl p 5-Pep 1) or buffer (UCO). On the next day the T-cells and the APCs were combined and stimulated with milk samples (VTP14, VTP1). T cell stimulation is given either in counts per minute (cpm) or as stimulation index (SI).

[1] = T-cells tolerized with the substance, stimulated with UCO
[2] = tolerized with the substance, stimulated with IL-2
[3] = tolerized with the substance, stimulated with VTP1, first line
[4] = tolerized with the substance, stimulated with VTP1, second line
[5] = tolerized with the substance, stimulated with VTP14, first line
[6] = tolerized with the substance, stimulated with VTP14, second line

Sequence | mean cpm [1] [cpm] | SI [2] | mean cpm [2] [cpm] | SI [3] | mean cpm [3] [cpm] | SI [4] | mean cpm [4] [cpm] | SI [5] | mean cpm [5] [cpm] | SI [6] | mean cpm [6] [cpm] | proliferation of T-cells when re-stimulated with cow's milk protein after preincubation with the substance | also measured
CGAASNKAFAEGLSGEPKGAAESSSKAALTSK (Phleum pratense) [Phl P5-peptide 1, control peptide, grass pollen allergen] | 12522 | 1.2 | 14724 | 0.3 | 4295 | 0.5 | 6355 | 3.4 | 41970 | 0.2 | 2336 |  | cpm (T-cells tolerized with the substance, stimulated with UCO, listed as Ph1 p 5-Pep 1): 11263 cpm and 13457 cpm and 12846 cpm; cpm (tolerized with the substance, stimulated with IL-2, listed as Ph1 p 5-Pep 1): 14153 cpm and 17806 cpm and 12214 cpm; cpm (tolerized with the substance, stimulated with VTP1, first line, listed as Ph1 p 5-Pep 1): 4708 cpm and 3278 cpm and 4898 cpm; cpm (tolerized with the substance, stimulated with VTP1, second line, listed as Ph1 p 5-Pep 1): 6315 cpm and 6342 cpm and 6409 cpm; cpm (tolerized with the substance, stimulated with VTP14, first line, listed as Ph1 p 5-Pep 1): 38430 cpm and 45751 cpm and 41730 cpm; cpm (tolerized with the substance, stimulated with VTP14, second line, listed as Ph1 p 5-Pep 1): 3282 cpm and 2244 cpm and 1482 cpm
CLKKYKVPQLEIVPNSAEERLHSMKEGIHAQQKE (listed as Bos taurus) [Cas4] | 16151 | 0.9 | 14533 | 0.4 | 6304 | 0.4 | 6621 | 1.3 | 20794 | 0.2 | 3747 | suppress the proliferation of T-cells | cpm (T-cells tolerized with the substance, stimulated with UCO, listed as αS2-PEP 4): 17694 cpm and 14608 cpm; cpm (tolerized with the substance, stimulated with IL-2, listed as αS2-PEP 4): 12704 cpm and 19463 cpm and 11433 cpm; cpm (tolerized with the substance, stimulated with VTP1, first line, listed as αS2-PEP 4): 6381 cpm and 6304 cpm and 6226 cpm; cpm (tolerized with the substance, stimulated with VTP1, second line, listed as αS2-PEP 4): 8231 cpm and 8478 cpm and 3154 cpm; cpm (tolerized with the substance, stimulated with VTP14, first line, listed as αS2-PEP 4): 16162 cpm and 25246 cpm; cpm (tolerized with the substance, stimulated with VTP14, second line, listed as αS2-PEP 4): 2790 cpm and 4703 cpm
ISSSEEIVPNSVEQKHIQKEDVPSERYLGYEQLLRC (listed as Bos taurus) [Cas3] |  |  |  |  |  |  |  |  |  |  |  | suppress the proliferation of T-cells | proliferation of T-cells when re-stimulated with cow's milk protein after preincubation with the substance (listed as alphaS1-casein-derived peptide 3): suppressed the proliferation
